Test results taken from patent publication US4442103A, “Treating sedation with 1-(3-substituted-2-pyridinyl) piperazines” (Merck & Co., Inc., priority 1982, dated 1984).

Columns and labels:
[1] = biological target: α1-adrenergic receptor; experiment: α1-adrenergic receptor binding ([3H] prazosin binding site); details: calf cerebral cortex
Procedure: Extent of binding to the α1 -adrenergic receptor was determined by the method of Greengrass and Bremner, Eur. J. Pharmacol., 55, 323 (1979) and is expressed in Table II as Ki, representing the affinity of each compound for the [^3 H] prazosin binding site in calf cerebral cortex.

[2] = tested on: α2-adrenergic receptor; assay type: binding, calf; details: for α1/α2 (ratio of Ki): Ki α1 / Ki α2, calf cerebral cortex; for Ki: [3H] clonidine binding site, calf cerebral cortex
[3] = tested on: norepinephrine reuptake; details: cited from earlier work
[4] = tested on: α1- or α2-adrenergic receptors; details: cited from earlier work
[5] = tested on: clonidine-induced sedation; details: man; cited from earlier work
[6] = tested on: locomotor depressant effects of methyldopa; details: rats; cited from earlier work
[7] = tested on: sedation produced by clonidine; details: in vivo; cited from earlier work

## c1ccc(N2CCNCC2)nc1 [Compound 4]
[1]
  Ki: 2400 nM
[2]
  α1/α2 (ratio of Ki): 65
  Ki: 37 nM

## CN1CCN(c2ncccc2Cl)CC1 [Compound 7]
[1]
  Ki: 215 nM
[2]
  Ki: 2.7 nM

## CN1CCN(c2ncccc2Br)CC1 [Compound 2]
[1]
  Ki: 160 nM
[2]
  α1/α2 (ratio of Ki): 55
  Ki: 2.9 nM

## CN1CCN2c3ccccc3Cc3ccccc3C2C1 (centres unmarked) [Mianserin]
[3]
  in vivo norepinephrine reuptake inhibiting properties: minimal
[4]
  blockade of α2-adrenergic receptors: blocks α2 -adrenergic receptors
[4]; in vivo blockade suggested at about the same dose
  selectivity for α1- or α2-adrenergic receptors: fails to exhibit any important selectivity

## Cl.Cl.Ic1cccnc1N1CCNCC1 [Compound 1, 1-(3-Iodo-2-pyridinyl)piperazine Dihydrochloride]
[1]
  Ki: 1600 nM
[2]
  α1/α2 (ratio of Ki): 38
  Ki: 42 nM

## COC(=O)[C@@H]1[C@H]2C[C@H]3c4[nH]c5ccccc5c4CCN3C[C@@H]2CC[C@@H]1O [yohimbine]
[5]
  effect on clonidine-induced sedation: reduce clonidine-induced sedation in man
[6]
  effect on locomotor depressant effects of methyldopa: antagonizes
[7]
  effect on sedation produced by clonidine: antagonizes the sedation produced by clonidine

## CN1CCN(c2ncccc2F)CC1 [Compound 6]
[1]
  Ki: 490 nM
[2]
  α1/α2 (ratio of Ki): 98
  Ki: 5 nM

## O=[N+]([O-])c1cccnc1N1CCNCC1 [Compound 5, 1-(3-Nitro-2-pyridinyl)piperazine]
[1]
  Ki: 3800 nM
[2]
  α1/α2 (ratio of Ki): 146
  Ki: 26 nM

## FC(F)(F)c1cccnc1N1CCNCC1 [Compound 3]
[1]
  Ki: 2850 nM
[2]
  α1/α2 (ratio of Ki): 29
  Ki: 97 nM
